We go through 27 compounds from US12516038B2, “Inhibitors of antigen presentation by HLA-DR” (Janssen Pharmaceutica NV, priority 2020, dated 2026).

The term IC50 denotes the concentration at which inhibition is half-maximal. Low readings indicate higher potency, high ones lower potency.

Experiment [1] has as its target HLA-DRB1*0401 (Homo sapiens (Human), UniProt P01903+P01911, A100K/A169T/DEL228-266/F76Y/I96L/K127E/L162R/M171V/N62H/P40V/Q125Y/R42H/S133A/S149N/S66Y/V115G/V209L/W38E). In words: HLA-DR4 HTRF assay. As to conditions: inhibition of loading of Alexa Fluor 647-labeled Cit-CII peptide onto HLA-DR4 (CLIP cleaved). The experiment is classed as binding. The gist of the method: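 HLA-DRB1*04:01 construct (α/β fused to human Fc, CLIP pre-cleaved by HRV3C overnight at 4° C) at 3 nM was preincubated 45 min with compound and 1 nM anti-Fc-Tb donor, then 40 nM Alexa647-Cit-CII1236-1249 peptide added. After 90 min at 37° C, the 665/620 nm HTRF ratio gave % inhibition; IC50 by nonlinear regression.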
(In general: In TR-FRET formats the signal depends on donor and acceptor labels being close together.)

In experiment [2] the test system is HLA-DR4 restricted mouse T cell hybridoma line (DR4.CII.36.8) with HLA-DRB1*04:01-expressing Boleth cells. In words: HLA-DR4-restricted peptide-specific T cell-based assay (hybridoma assay). Particulars: 6 h, inhibition of IL-2 production, CII259-273 peptide presented by Boleth cells. The gist of the method:
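Boleth cells (HLA-DRB1*04:01 B cell line) pre-incubated with compound 1 h at 37° C. in DMEM/1% FCS, then DR4.CII.36.8 mouse T cell hybridoma (CII259-273-specific) added for 6 h with CII259-273 peptide. Supernatant mouse IL-2 by AlphaLISA; IC50 by 4-PL fit of 8-point duplicate titrations.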

Where only a bound is given, the exact number is not on record here.

For the compound `Cc1c(O[C@H](c2ccncc2)c2cccc(F)c2)c(F)cc2c1OCCC2=O` (single isomer, unassigned) [Example 96a, (*R)-6-fluoro-7-((3-fluorophenyl)(pyridin-4-yl)methoxy)-8-methylchroman-4-one], the IC50 in experiment [1] was determined as 0.3 µM; in experiment [2] (Mus musculus, T-cell), 11 µM.
With `Cc1cnccc1[C@H](Oc1ccc2c(c1)OCCC2=O)c1ccc(C(N)=O)cc1` (single isomer, unassigned) [Example 21a, (*R)-4-((3-Methylpyridin-4-yl)((4-oxochroman-7-yl)oxy)methyl)benzamide], the IC50 in experiment [1] came to 1 µM; in experiment [2] (Mus musculus, T-cell), 5.4 µM.
On to `Cc1c(O[C@@H](c2ccccc2)c2ccc(C(N)=O)cc2)ccc2c1OCCC2=O` (single isomer, unassigned) [Example 69b, (*S)-4-(((8-Methyl-4-oxochroman-7-yl)oxy)(phenyl)methyl)benzamide], for which the IC50 was 2.1 µM in experiment [1] and more than 15 µM in experiment [2] (Mus musculus, T-cell).
For the compound `O=C1CCOc2cc(O[C@H](c3ccncc3)c3ccc(OCc4ccccc4)cc3)ccc21` (single isomer, unassigned) [Example 16b, 7-((4-(benzyloxy)phenyl)(pyridin-4-yl)methoxy)chroman-4-one], the IC50 in experiment [1] is 9.9 µM; in experiment [2] (Mus musculus, T-cell) it was more than 15 µM.
For `Cc1c(O[C@@H](c2ccncc2)c2ccc(S(C)(=O)=O)cc2)c(F)cc2c1OCCC2=O` (single isomer, unassigned) [Example 104a, (*R)-6-fluoro-8-methyl-7-((4-(methylsulfonyl)phenyl)(pyridin-4-yl)methoxy)chroman-4-one] the same measures were 0.29 µM and 3.9 µM.
Turning to `NC(=O)c1ccc([C@H](Oc2ccc3c(c2)OCCC3=O)c2ccncc2F)cc1` (single isomer, unassigned) [Example 20b, (*S)-4-((3-fluoropyridin-4-yl)((4-oxochroman-7-yl)oxy)methyl)benzamide], the IC50 in experiment [1] worked out at 0.91 µM; in experiment [2] (Mus musculus, T-cell), 6.2 µM.
Turning to `Cc1cc([C@H](Oc2cc3c(cc2F)C(=O)CCO3)c2ccc(C(N)=O)cc2)cc(C)n1` (single isomer, unassigned) [Example 109a, (*R)-4-((2,6-dimethylpyridin-4-yl)((6-fluoro-4-oxochroman-7-yl)oxy)methyl)benzamide], the IC50 in experiment [1] stood at 0.21 µM; in experiment [2], 1.1 µM.
In the case of `Cc1cnccc1[C@@H](Oc1ccc2c(c1)OCCC2=O)c1ccc(C(N)=O)cc1` (single isomer, unassigned) [Example 21b, (*S)-4-((3-Methylpyridin-4-yl)((4-oxochroman-7-yl)oxy)methyl)benzamide], the IC50 came out at 0.64 µM in experiment [1] and 5.4 µM in experiment [2] (Mus musculus, T-cell).
For `Cc1c(O[C@H](c2ccncc2)c2cccc(S(C)(=O)=O)c2)c(F)cc2c1OCCC2=O` (single isomer, unassigned) [Example 105a, (*R)-6-fluoro-8-methyl-7-((3-(methylsulfonyl)phenyl)(pyridin-4-yl)methoxy)chroman-4-one], in that order: 0.2 µM and more than 15 µM.
Consider `Cc1cc([C@@H](Oc2ccc3c(c2)OCCC3=O)c2ccncc2)ccc1C(N)=O` (single isomer, unassigned) [Example 35a, (*R)-2-methyl-4-(((4-oxochroman-7-yl)oxy)(pyridin-4-yl)methyl)benzamide], for which the 50% inhibitory concentration (IC50) was 0.96 µM in experiment [1] and more than 15 µM in experiment [2] (Mus musculus, T-cell).
Regarding `COc1cnccc1[C@H](Oc1ccc2c(c1)OCCC2=O)c1ccc(C(N)=O)cc1` (single isomer, unassigned) [Example 23a, (*R)-4-((3-methoxypyridin-4-yl)((4-oxochroman-7-yl)oxy)methyl)benzamide], the IC50 came out at 0.45 µM in experiment [1] and 10 µM in experiment [2] (Mus musculus, T-cell).
In the case of `Cc1c(O[C@@H](c2ccc(C(N)=O)cc2)c2ccnc(CCC(=O)O)c2)ccc2c1OCCC2=O` (single isomer, unassigned) [Example 87b], the concentration for half-maximal inhibition (IC50) was 0.51 µM in experiment [1] and more than 15 µM in experiment [2] (Mus musculus, T-cell).
For `COc1ccc([C@@H](Oc2c(F)cc3c(c2C)OCCC3=O)c2ccncc2)cc1F` (single isomer, unassigned) [Example 97b, (*S)-6-fluoro-7-((3-fluoro-4-methoxyphenyl)(pyridin-4-yl)methoxy)-8-methylchroman-4-one] the same measures were 0.38 µM and more than 15 µM.
Turning to `Cc1c(O[C@H](c2ccc(C(N)=O)cc2)c2ccc(F)c(F)c2)c(F)cc2c1OCCC2=O` (single isomer, unassigned) [Example 91a, (*R)-4-((3,4-difluorophenyl)((6-fluoro-8-methyl-4-oxochroman-7-yl)oxy)methyl)benzamide], the IC50 came to 0.55 µM in experiment [1] and 7.8 µM in experiment [2] (Mus musculus, T-cell).
With `COc1cc(C(N)=O)ccc1[C@H](Oc1ccc2c(c1C)OCCC2=O)c1ccncc1` (single isomer, unassigned) [Example 82a, (*R)-3-Methoxy-4-(((8-methyl-4-oxochroman-7-yl)oxy)(pyridin-4-yl)methyl)benzamide], the IC50 in experiment [1] was 0.71 µM; in experiment [2] (Mus musculus, T-cell) it was more than 15 µM.
Turning to `Cc1c(O[C@@H](c2ccc(C(N)=O)cc2)c2ccccc2F)ccc2c1OCCC2=O` (single isomer, unassigned) [Example 68b, (*S)-4-((2-Fluorophenyl)((8-methyl-4-oxochroman-7-yl)oxy)methyl)benzamide], the 50% inhibitory concentration (IC50) was 5.4 µM in experiment [1] and more than 15 µM in experiment [2] (Mus musculus, T-cell).
For `NC(=O)c1ccc([C@@H](Oc2ccc3c(c2)OCCC3=O)c2ccnc(N)c2)cc1` (single isomer, unassigned) [Example 28a, (*R)-4-((2-aminopyridin-4-yl)((4-oxochroman-7-yl)oxy)methyl)benzamide] the same measures were 1.8 µM and 6.9 µM.
Turning to `CC[C@@H]1CC(=O)c2ccc(O[C@H](c3ccncc3)c3ccc(C(N)=O)cc3)cc2O1` (single isomer, unassigned) [Example 41a, 4-((*S)—(((*R)-2-ethyl-4-oxochroman-7-yl)oxy)(pyridin-4-yl)methyl)benzamide], the IC50 was 1.2 µM in experiment [1] and more than 15 µM in experiment [2] (Mus musculus, T-cell).
Consider `NC(=O)c1ccc([C@@H](Oc2ccc3c(c2)OCCC3=O)c2ccccn2)cc1` (single isomer, unassigned) [Example 32a, (*R)-4-(((4-oxochroman-7-yl)oxy)(pyridin-2-yl)methyl)benzamide], for which the half-inhibitory concentration (IC50) was 3.6 µM in experiment [1] and 8.2 µM in experiment [2] (Mus musculus, T-cell).
`COc1c(O[C@@H](c2ccncc2)c2ccc(C(N)=O)cc2)ccc2c1OCCC2=O` (single isomer, unassigned) [Example 100a, (*R)-4-(((8-methoxy-4-oxochroman-7-yl)oxy)(pyridin-4-yl)methyl)benzamide]: the IC50 in experiment [1] turned out to be 6.4 µM; in experiment [2] (Mus musculus, T-cell) it was 7.6 µM.
With `Cc1cc([C@@H](Oc2ccc3c(c2)OCCC3=O)c2ccc(C(N)=O)cc2)ccn1` (single isomer, unassigned) [Example 15b, (*S)-4-((2-Methylpyridin-4-yl)((4-oxochroman-7-yl)oxy)methyl)benzamide], the IC50 turned out to be 0.77 µM in experiment [1] and 8.1 µM in experiment [2] (Mus musculus, T-cell).
For `Cc1c(O[C@H](c2ccc(Cl)cc2)c2ccc(C(N)=O)cc2)ccc2c1OCCC2=O` (single isomer, unassigned) [Example 57b, (*S)-4-((4-chlorophenyl)((8-methyl-4-oxochroman-7-yl)oxy)methyl)benzamide], in that order: 2 µM and more than 15 µM.
In the case of `Cc1c(O[C@@H](c2ccc(C(N)=O)cc2)c2ccc(S(C)(=O)=O)cc2)c(F)cc2c1OCCC2=O` (single isomer, unassigned) [Example 93b, (*S)-4-(((6-fluoro-8-methyl-4-oxochroman-7-yl)oxy)(4-(methylsulfonyl)phenyl)methyl)benzamide], the IC50 in experiment [1] is 0.28 µM; in experiment [2] (Mus musculus, T-cell) it was 14 µM.
For `NC(=O)c1ccc([C@@H](Oc2ccc3c(c2)OCCC3=O)c2ccncc2-c2ccccc2)cc1` (single isomer, unassigned) [Example 25a, (*R)-4-(((4-oxochroman-7-yl)oxy)(3-phenylpyridin-4-yl)methyl)benzamide], in that order: 0.48 µM and 6.4 µM.
For `NC(=O)c1ccc([C@H](Oc2ccc3c(c2)OCCC3=O)c2ccc(Cl)cc2)cc1` (single isomer, unassigned) [Example 30b, (*S)-4-((4-Chlorophenyl)((4-oxochroman-7-yl)oxy)methyl)benzamide], in that order: 1.2 µM and 6.4 µM.
For the compound `NC(=O)c1ccc([C@H](Oc2cc(F)c3c(c2)OCCC3=O)c2ccncc2)cc1` (single isomer, unassigned) [Example 51b, (*S)-4-(((5-Fluoro-4-oxochroman-7-yl)oxy)(pyridin-4-yl)methyl)benzamide], the IC50 in experiment [1] is 3.5 µM; in experiment [2] (Mus musculus, T-cell), 15 µM.
Regarding `COc1ccc([C@H](Oc2c(F)cc3c(c2C)OCCC3=O)c2ccncc2)cc1F` (single isomer, unassigned) [Example 97a, (*R)-6-fluoro-7-((3-fluoro-4-methoxyphenyl)(pyridin-4-yl)methoxy)-8-methylchroman-4-one], the IC50 in experiment [1] was 0.41 µM; in experiment [2] (Mus musculus, T-cell), 5.2 µM.
